Test results published in publication PMC7362394 (Bioorganic & medicinal chemistry letters, 2019).
pKi: −log10 of the molar value.

What was measured:
uPA [1] = biological target: T1, uPA (Homo sapiens, UniProt P00749); conditions: read-out: uPA Ki; value taken from earlier paper; cited from earlier work
uPA [2] = biological target: T1, uPA
85 serine hydrolases = conditions: 5 nM-33 μM
[3] = test system: panel of mammalian cell lines; conditions: concentrations up to 100 μM
[4] = biological target: T2, epithelial sodium channels (ENaCs) (Homo sapiens, UniProt P37088+P51168+P51170); conditions: compounds at 10 μM, n = 4
T2 sequence (P37088 1-669): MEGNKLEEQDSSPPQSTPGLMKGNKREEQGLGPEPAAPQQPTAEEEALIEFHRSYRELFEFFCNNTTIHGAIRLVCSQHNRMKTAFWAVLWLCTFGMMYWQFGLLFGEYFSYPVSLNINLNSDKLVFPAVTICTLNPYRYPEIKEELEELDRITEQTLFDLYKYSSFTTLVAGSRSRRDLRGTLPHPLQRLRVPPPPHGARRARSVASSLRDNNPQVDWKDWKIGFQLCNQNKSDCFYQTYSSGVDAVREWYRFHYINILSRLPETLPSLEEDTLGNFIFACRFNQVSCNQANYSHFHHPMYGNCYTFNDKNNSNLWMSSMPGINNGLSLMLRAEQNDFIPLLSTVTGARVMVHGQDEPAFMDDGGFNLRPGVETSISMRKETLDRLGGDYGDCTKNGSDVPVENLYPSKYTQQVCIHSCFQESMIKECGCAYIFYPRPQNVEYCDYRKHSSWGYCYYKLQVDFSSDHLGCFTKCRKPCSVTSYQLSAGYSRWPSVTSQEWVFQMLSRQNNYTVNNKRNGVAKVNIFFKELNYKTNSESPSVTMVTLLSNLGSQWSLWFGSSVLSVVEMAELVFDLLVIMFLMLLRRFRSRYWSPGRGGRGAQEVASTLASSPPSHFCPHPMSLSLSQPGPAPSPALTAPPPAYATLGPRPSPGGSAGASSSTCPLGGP
T2 sequence (P51168 1-640): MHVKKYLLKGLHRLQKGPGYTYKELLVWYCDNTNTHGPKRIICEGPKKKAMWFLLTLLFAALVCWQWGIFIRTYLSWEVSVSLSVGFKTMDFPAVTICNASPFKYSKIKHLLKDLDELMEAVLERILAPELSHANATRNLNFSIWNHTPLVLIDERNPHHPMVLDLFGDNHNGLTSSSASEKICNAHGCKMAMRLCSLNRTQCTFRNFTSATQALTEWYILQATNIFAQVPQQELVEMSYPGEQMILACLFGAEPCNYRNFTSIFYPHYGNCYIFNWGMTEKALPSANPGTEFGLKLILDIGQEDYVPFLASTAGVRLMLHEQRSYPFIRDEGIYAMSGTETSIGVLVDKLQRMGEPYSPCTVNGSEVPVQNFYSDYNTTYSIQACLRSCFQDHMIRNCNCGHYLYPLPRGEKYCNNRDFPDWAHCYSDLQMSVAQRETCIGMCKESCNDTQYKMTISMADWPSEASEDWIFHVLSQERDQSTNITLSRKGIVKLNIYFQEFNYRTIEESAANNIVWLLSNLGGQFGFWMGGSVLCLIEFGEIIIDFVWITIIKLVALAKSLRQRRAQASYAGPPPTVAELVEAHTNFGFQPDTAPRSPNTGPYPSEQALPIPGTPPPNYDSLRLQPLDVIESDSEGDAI
T2 sequence (P51170 1-649): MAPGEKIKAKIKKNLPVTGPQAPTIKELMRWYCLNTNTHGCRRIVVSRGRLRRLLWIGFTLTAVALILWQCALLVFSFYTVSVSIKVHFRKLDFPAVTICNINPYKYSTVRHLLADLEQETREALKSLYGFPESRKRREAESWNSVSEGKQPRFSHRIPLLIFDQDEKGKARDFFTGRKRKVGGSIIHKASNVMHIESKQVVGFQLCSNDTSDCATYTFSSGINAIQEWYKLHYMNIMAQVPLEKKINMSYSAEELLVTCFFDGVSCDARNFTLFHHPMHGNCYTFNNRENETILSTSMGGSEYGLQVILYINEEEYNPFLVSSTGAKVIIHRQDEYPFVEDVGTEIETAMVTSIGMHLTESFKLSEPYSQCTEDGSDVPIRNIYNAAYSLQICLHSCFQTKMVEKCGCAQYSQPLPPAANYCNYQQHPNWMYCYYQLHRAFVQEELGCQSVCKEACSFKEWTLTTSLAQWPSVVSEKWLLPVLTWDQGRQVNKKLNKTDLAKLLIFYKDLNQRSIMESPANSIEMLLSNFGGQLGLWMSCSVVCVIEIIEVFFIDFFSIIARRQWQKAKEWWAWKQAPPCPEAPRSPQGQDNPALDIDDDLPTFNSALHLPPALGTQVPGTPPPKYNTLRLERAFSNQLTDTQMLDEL

Sprague Dawley rats = conditions: 25 mg/kg acetazolamide IV then 1.5 mg/kg compound IP, n = 8

Structure (SMILES)	uPA potency relative to amiloride (in words) (uPA [2])	fold increase in uPA activity relative to amiloride (uPA [2]; from Ki values) [fold]	further results
COc1ncc(-c2nc(C(=O)NC(=N)N)c(N)nc2N2CCCCCC2)c(OC)n1 [6-(2,4-dimethoxypyrimidin-5-yl)-5-(N,N-hexamethylene) amiloride]			pKi (uPA [1]): 7.38
N=C(N)NC(=O)c1nc(-c2ccccc2)c(N)nc1N [Compound 3]	did not improve potency		
CSc1ccc(-c2nc(C(=O)NC(=N)N)c(N)nc2N)cc1 [Compound 4]	did not improve potency		
N=C(N)NC(=O)c1nc(-c2ccc(C(F)(F)F)cc2)c(N)nc1N [Compound 5]	did not improve potency		
COc1ncc(-c2nc(C(=O)NC(=N)N)c(N)nc2N)cn1 [Compound 7]			inhibition of serine hydrolases in EnPlex assay (in words) (85 serine hydrolases): High uPA selectivity; cytotoxicity across the cell line panel (in words) [3]: much less toxic; ENaC activity (in words) [4]: Complete loss of ENaC activity; effect on Na+/K+ excretion / solute concentrations (in words) (Sprague Dawley rats): no significant effect; effect on diuresis (in words) (Sprague Dawley rats): no significant effect
COc1ncc(-c2nc(C(=O)NC(=N)N)c(N)nc2N)c(OC)n1 [Compound 8]	only a modest increase in activity		
COc1ccc(-c2nc(C(=O)NC(=N)N)c(N)nc2N)c(OC)n1 [Compound 9]		2	
N=C(N)NC(=O)c1nc(-c2cccs2)c(N)nc1N [Compound 10]		2	
N=C(N)NC(=O)c1nc(-c2ccco2)c(N)nc1N [Compound 11]		3.3	
N=C(N)NC(=O)c1nc(-c2cc3ccccc3s2)c(N)nc1N [Compound 14]		1.7	
N=C(N)NC(=O)c1nc(-c2cc3cc(Br)ccc3o2)c(N)nc1N [Compound 19]			fold decrease in uPA activity relative to amiloride (uPA [2]; from Ki values): 1.5 fold; fold loss of uPA activity relative to 15 (uPA [2]; from Ki values): ~ 12 fold
N=C(N)NC(=O)c1nc(-c2ccc3occc3c2)c(N)nc1N [Compound 23]			uPA potency relative to 15 (in words) (uPA [2]): only a small decrease in potency
N=C(N)NC(=O)c1nc(-c2ccc3c(c2)CCO3)c(N)nc1N [Compound 24]	slight increase		
